Data from PMC5855801, “Benzothiophenone Derivatives Targeting Mutant Forms of Estrogen Receptor-α in Hormone-Resistant Breast Cancers” (International Journal of Molecular Sciences, 2018).

What was measured:
ERα− MDA-MB-231 cells = test: Presto Blue cell viability assay, MDA-MB-231; type: cell-based, human; conditions: ERα− MDA-MB-231, 96 h
[1] = tested on: pS2, PR, Cyclin D1 and CDC2 proteins; test: Western blotting in TamR3 cells; type: cell-based, human; conditions: TamR3, 24 h, effect at higher doses
Description: Serum-starved MCF7 and TamR3 cells were seeded onto a six-well plate at a density of 6 × 10^5 cells/well and treated the following day with VPC-16606 in the presence of 1 nM E2. One micromolar OHT was used as the positive control. After 24 h, cells were lysed in 1× radioimmunoprecipitation assay (RIPA) buffer. Twenty five micrograms of protein were loaded into SDS-PAGE gels and transferred to PVDF membranes. Membranes were incubated with pS2, PR Cyclin D1 and CDC2 antibodies or control α-actin antibody. Bound antibodies were detected using HRP-conjugated secondary antibodies. Chemiluminescence was detected with an Amersham ECL detection kit (GE Healthcare Life Sciences, Chicago, IL, USA), and bands were visualised using the G:BOX imager (Syngene, Cambridge, UK).

With CC(=O)N(/N=C1\Sc2c(C)cccc2C1=O)c1ccccc1Cl [VPC-16606] as the compound, how does the “Cell growth (Presto Blue viability)” value (ERα− MDA-MB-231 cells) read?
The value was “without any effect”.

What about the “Expression of pS2, PR, Cyclin D1 and CDC2 proteins (Western blot)” value [1] of the same compound?
The value was “decreased expression”.
